Results on five molecules are retold here after ChEMBL document CHEMBL1157290, “Bioactive isomalabaricane triterpenoids from Rhabdastrella globostellata that stabilize the binding of DNA polymerase beta to DNA” (2006).

The source made the active and inactive calls. The rule behind the calls is not given here. *1 amine or outer side, *2 acyl side, *3 side chain or, on linkers, in order; H or OH if unused. Where a SMILES comes first, the peptide text is derived from it. Bridges are numbered along the chain shown (N, C = ends). Roman numbers before positions name the chains, in order. [ ]: non-standard residue; d: D form. Actinocin(1to9) = Cc1c2oc3c(C)ccc(C(=O)[*:2])c3nc-2c(C(=O)[*:1])c(N)c1=O; NMeV = CN[C@H](C(=O)O)C(C)C; Sar = CNCC(=O)O

The species named for one experiment is Rattus norvegicus. Description: Stabilization of rat DNA polymerase binding to DNA by gel mobility assay.
For a further experiment, the system named is A2780. Description: Cytotoxicity against human A2780 cells. The class given is functional.

Regarding `CC(=O)O[C@@H]1CC[C@@]2(C)[C@@H](CC[C@]3(C)/C(=C(C)/C=C/C=C(\C)C(CC=C(C)C)O[C@@H]4OC[C@@H](O)[C@@H](O)[C@H]4O)C(=O)C[C@@H]23)C1(C)C` (some centres undefined) [STELLIFERIN RIBOSIDE], the Activity in the experiment listed under Rattus norvegicus came out at 29%; in the experiment with A2780, 7.3 µM.

In turn, `Cc1c2oc3c(C)ccc(C(=O)N[C@@H]4C(=O)N[C@H](C(C)C)C(=O)N5CCC[C@H]5C(=O)N(C)CC(=O)N(C)[C@@H](C(C)C)C(=O)O[C@@H]4C)c3nc-2c(C(=O)N[C@@H]2C(=O)N[C@H](C(C)C)C(=O)N3CCC[C@H]3C(=O)N(C)CC(=O)N(C)[C@@H](C(C)C)C(=O)O[C@@H]2C)c(N)c1=O` [DACTINOMYCIN] (I: T[dV]P[Sar][NMeV] / II: T[dV]P[Sar][NMeV]; ester I:1-I:C, II:1-II:C; linker I:N-II:N via Actinocin(1to9)) displayed an Activity with A2780 of 0.0017 µM.

Take `CC(C)=C/C=C/C(C)=C/C=C/C(C)=C1\C(=O)C[C@H]2[C@@]3(C)CC[C@@H](O)[C@](C)(C(=O)O)[C@@H]3CC[C@]12C` [STELLETTIN K]: the outcome in the experiment listed under Rattus norvegicus was inactive. The same molecule registered an Activity with A2780 of 0.28 µM.

As to `CC(=O)OC[C@]1(C)[C@@H]2CC[C@]3(C)/C(=C(C)/C=C/C=C(\C)[C@H](CC=C(C)C)OC(C)=O)C(=O)C[C@H]3[C@@]2(C)CC[C@H]1OC(C)=O`, the Activity is 23% in the experiment filed under Rattus norvegicus and 27 µM in the experiment with A2780.

Regarding `CC(C)=C/C=C/C(C)=C/C=C/C(C)=C1\C(=O)C[C@H]2[C@@]3(C)CC[C@@H](O)[C@](C)(CO)[C@@H]3CC[C@]12C` [STELLETTIN J], the Activity in the experiment listed under Rattus norvegicus is 8%; in the experiment on A2780, 1.2 µM.
